Reference: PubChem BioAssay (NCI)
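Exposure lasted 48 hours, with cells grown in 96-well plates and compounds tested at five concentrations. The concentration for full growth arrest is given as TGI.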

Experiments:
Test in all cases: NCI anticancer screen, dose series, 48 h
K-562 leukemia = system: K-562 leukemia
CCRF-CEM leukemia = system: CCRF-CEM leukemia
IGROV1 ovarian = system: IGROV1 ovarian
M14 melanoma = system: M14 melanoma
RXF 393 renal = system: RXF 393 renal
U251 CNS = system: U251 CNS
SNB-78 CNS = system: SNB-78 CNS
SK-MEL-5 melanoma = system: SK-MEL-5 melanoma
MALME-3M melanoma = system: MALME-3M melanoma
CAKI-1 renal = system: CAKI-1 renal
SK-MEL-28 melanoma = system: SK-MEL-28 melanoma
SF-295 CNS = system: SF-295 CNS
NCI-H522 lung = system: NCI-H522 lung
UO-31 renal = system: UO-31 renal
SN12C renal = system: SN12C renal
KM12 colon = system: KM12 colon
UACC-62 melanoma = system: UACC-62 melanoma
SR leukemia = system: SR leukemia
SK-OV-3 ovarian = system: SK-OV-3 ovarian
NCI-H23 lung = system: NCI-H23 lung
TK-10 renal = system: TK-10 renal
SK-MEL-2 melanoma = system: SK-MEL-2 melanoma
KM20L2 colon = system: KM20L2 colon
DLD-1 colon = system: DLD-1 colon
HCC-2998 colon = system: HCC-2998 colon
OVCAR-5 ovarian = system: OVCAR-5 ovarian
OVCAR-3 ovarian = system: OVCAR-3 ovarian
MOLT-4 leukemia = system: MOLT-4 leukemia
DMS 273 small cell lung = system: DMS 273 small cell lung
XF 498 CNS = system: XF 498 CNS
OVCAR-4 ovarian = system: OVCAR-4 ovarian
HOP-92 NSCLC = system: HOP-92 NSCLC
HCT-15 colon = system: HCT-15 colon
COLO 205 colon = system: COLO 205 colon
SW-620 colon = system: SW-620 colon
HT29 colon = system: HT29 colon
OVCAR-8 ovarian = system: OVCAR-8 ovarian
LXFL 529 NSCLC = system: LXFL 529 NSCLC
SNB-19 CNS = system: SNB-19 CNS
HCT-116 colon = system: HCT-116 colon
RPMI-8226 leukemia = system: RPMI-8226 leukemia
NCI-H226 lung = system: NCI-H226 lung
SNB-75 CNS = system: SNB-75 CNS
A549 NSCLC = system: A549 NSCLC
EKVX NSCLC = system: EKVX NSCLC
HOP-62 NSCLC = system: HOP-62 NSCLC
M19-MEL melanoma = system: M19-MEL melanoma
A498 renal = system: A498 renal
DMS 114 small cell lung = system: DMS 114 small cell lung
SF-268 CNS = system: SF-268 CNS
LOX IMVI melanoma = system: LOX IMVI melanoma
786-0 renal = system: 786-0 renal
HL-60(TB) leukemia = system: HL-60(TB) leukemia
NCI-H460 lung = system: NCI-H460 lung
SF-539 CNS = system: SF-539 CNS
HOP-18 NSCLC = system: HOP-18 NSCLC
UACC-257 melanoma = system: UACC-257 melanoma
ACHN renal = system: ACHN renal

O=C(N/C(=C\c1ccc(Br)cc1)c1nc2ccccc2[nH]1)c1ccccc1
TGI (K-562 leukemia): 52.6 µM
TGI (CCRF-CEM leukemia): 70.2 µM
TGI (IGROV1 ovarian): 66.6 µM
TGI (M14 melanoma): 32.8 µM
TGI (RXF 393 renal): 30.4 µM
TGI (U251 CNS): 33.5 µM
TGI (SNB-78 CNS): 59.6 µM
TGI (SK-MEL-5 melanoma): 37 µM
TGI (MALME-3M melanoma): 45.6 µM
TGI (CAKI-1 renal): 65.1 µM
TGI (SK-MEL-28 melanoma): 30.3 µM
TGI (SF-295 CNS): 64.5 µM
TGI (NCI-H522 lung): 29.8 µM
TGI (UO-31 renal): 33.7 µM
TGI (SN12C renal): 32.7 µM
TGI (KM12 colon): 33.5 µM
TGI (UACC-62 melanoma): 43.6 µM
TGI (SR leukemia): 50.9 µM
TGI (SK-OV-3 ovarian): 86.3 µM
TGI (NCI-H23 lung): 36 µM
TGI (TK-10 renal): 84.7 µM
TGI (SK-MEL-2 melanoma): 30.9 µM
TGI (KM20L2 colon): 29.8 µM
TGI (DLD-1 colon): 59.8 µM
TGI (HCC-2998 colon): 30.9 µM
TGI (OVCAR-5 ovarian): 52 µM
TGI (OVCAR-3 ovarian): 46.2 µM
TGI (MOLT-4 leukemia): 67.4 µM
TGI (DMS 273 small cell lung): 58.9 µM
TGI (XF 498 CNS): 34.2 µM
TGI (OVCAR-4 ovarian): 36.5 µM
TGI (HOP-92 NSCLC): 24.7 µM
TGI (HCT-15 colon): 39.4 µM
TGI (COLO 205 colon): 41.1 µM
TGI (SW-620 colon): 29.6 µM
TGI (HT29 colon): 36.4 µM
TGI (OVCAR-8 ovarian): 40 µM
TGI (LXFL 529 NSCLC): 30.9 µM
TGI (SNB-19 CNS): 41.6 µM

O=C1C[C@@H]2[C@@H](CCC23CC3)N1
TGI (HCT-116 colon): > 100 µM
TGI (K-562 leukemia): > 100 µM
TGI (RPMI-8226 leukemia): > 100 µM
TGI (NCI-H226 lung): > 100 µM
TGI (CCRF-CEM leukemia): > 100 µM
TGI (IGROV1 ovarian): > 100 µM
TGI (M14 melanoma): > 100 µM
TGI (RXF 393 renal): > 100 µM
TGI (U251 CNS): > 100 µM
TGI (SNB-75 CNS): > 100 µM
TGI (SNB-78 CNS): > 100 µM
TGI (SK-MEL-5 melanoma): > 100 µM
TGI (MALME-3M melanoma): > 100 µM
TGI (A549 NSCLC): > 100 µM
TGI (CAKI-1 renal): > 100 µM
TGI (SK-MEL-28 melanoma): > 100 µM
TGI (EKVX NSCLC): > 100 µM
TGI (SF-295 CNS): > 100 µM
TGI (HOP-62 NSCLC): > 100 µM
TGI (NCI-H522 lung): > 100 µM
TGI (UO-31 renal): > 100 µM
TGI (SN12C renal): > 100 µM
TGI (M19-MEL melanoma): > 100 µM
TGI (KM12 colon): > 100 µM
TGI (UACC-62 melanoma): > 100 µM
TGI (A498 renal): > 100 µM
TGI (SK-OV-3 ovarian): > 100 µM
TGI (DMS 114 small cell lung): > 100 µM
TGI (NCI-H23 lung): > 100 µM
TGI (SF-268 CNS): > 100 µM
TGI (TK-10 renal): > 100 µM
TGI (SK-MEL-2 melanoma): > 100 µM
TGI (KM20L2 colon): > 100 µM
TGI (DLD-1 colon): > 100 µM
TGI (HCC-2998 colon): > 100 µM
TGI (LOX IMVI melanoma): > 100 µM
TGI (OVCAR-5 ovarian): > 100 µM
TGI (OVCAR-3 ovarian): > 100 µM
TGI (DMS 273 small cell lung): > 100 µM
TGI (OVCAR-4 ovarian): > 100 µM
TGI (786-0 renal): > 100 µM
TGI (COLO 205 colon): > 100 µM
TGI (HL-60(TB) leukemia): > 100 µM
TGI (NCI-H460 lung): > 100 µM
TGI (SW-620 colon): > 100 µM
TGI (SF-539 CNS): > 100 µM
TGI (HT29 colon): > 100 µM
TGI (HOP-18 NSCLC): > 100 µM
TGI (UACC-257 melanoma): > 100 µM
TGI (OVCAR-8 ovarian): > 100 µM
TGI (LXFL 529 NSCLC): > 100 µM
TGI (SNB-19 CNS): > 100 µM

CC(C)(C)C(=O)OCC1OC(N=[N+]=[N-])C(OC(=O)C(C)(C)C)C(OC(=O)C(C)(C)C)C1OC(=O)C(C)(C)C (stereo not given)
TGI (HCT-116 colon): > 100 µM
TGI (K-562 leukemia): > 100 µM
TGI (RPMI-8226 leukemia): > 100 µM
TGI (CCRF-CEM leukemia): > 100 µM
TGI (IGROV1 ovarian): > 100 µM
TGI (M14 melanoma): > 100 µM
TGI (RXF 393 renal): > 100 µM
TGI (U251 CNS): > 100 µM
TGI (SNB-75 CNS): > 100 µM
TGI (SNB-78 CNS): > 100 µM
TGI (SK-MEL-5 melanoma): > 100 µM
TGI (MALME-3M melanoma): > 100 µM
TGI (A549 NSCLC): > 100 µM
TGI (CAKI-1 renal): > 100 µM
TGI (SK-MEL-28 melanoma): > 100 µM
TGI (EKVX NSCLC): > 100 µM
TGI (SF-295 CNS): > 100 µM
TGI (ACHN renal): > 100 µM
TGI (HOP-62 NSCLC): > 100 µM
TGI (NCI-H522 lung): > 100 µM
TGI (UO-31 renal): > 100 µM
TGI (SN12C renal): > 100 µM
TGI (KM12 colon): > 100 µM
TGI (UACC-62 melanoma): > 100 µM
TGI (A498 renal): > 100 µM
TGI (SR leukemia): > 100 µM
TGI (SK-OV-3 ovarian): > 100 µM
TGI (DMS 114 small cell lung): > 100 µM
TGI (NCI-H23 lung): > 100 µM
TGI (SF-268 CNS): > 100 µM
TGI (TK-10 renal): > 100 µM
TGI (SK-MEL-2 melanoma): > 100 µM
TGI (KM20L2 colon): > 100 µM
TGI (DLD-1 colon): > 100 µM
TGI (HCC-2998 colon): > 100 µM
TGI (OVCAR-5 ovarian): > 100 µM
TGI (OVCAR-3 ovarian): > 100 µM
TGI (MOLT-4 leukemia): > 100 µM
TGI (DMS 273 small cell lung): > 100 µM
TGI (XF 498 CNS): > 100 µM
TGI (OVCAR-4 ovarian): > 100 µM
TGI (HOP-92 NSCLC): > 100 µM
TGI (HCT-15 colon): > 100 µM
TGI (COLO 205 colon): > 100 µM
TGI (HL-60(TB) leukemia): > 100 µM
TGI (NCI-H460 lung): > 100 µM
TGI (SW-620 colon): > 100 µM
TGI (SF-539 CNS): > 100 µM
TGI (HT29 colon): > 100 µM
TGI (UACC-257 melanoma): > 100 µM
TGI (OVCAR-8 ovarian): > 100 µM
TGI (LXFL 529 NSCLC): > 100 µM
TGI (SNB-19 CNS): > 100 µM

CCSCN(C)c1nc(N(C)C)nc(N(C)C)n1
TGI (HCT-116 colon): > 100 µM
TGI (K-562 leukemia): > 100 µM
TGI (RPMI-8226 leukemia): > 100 µM
TGI (CCRF-CEM leukemia): > 100 µM
TGI (IGROV1 ovarian): > 100 µM
TGI (M14 melanoma): > 100 µM
TGI (RXF 393 renal): 61.3 µM
TGI (U251 CNS): > 100 µM
TGI (SNB-75 CNS): > 100 µM
TGI (SNB-78 CNS): > 100 µM
TGI (SK-MEL-5 melanoma): > 100 µM
TGI (MALME-3M melanoma): > 100 µM
TGI (A549 NSCLC): > 100 µM
TGI (CAKI-1 renal): > 100 µM
TGI (SK-MEL-28 melanoma): > 100 µM
TGI (EKVX NSCLC): > 100 µM
TGI (SF-295 CNS): > 100 µM
TGI (ACHN renal): > 100 µM
TGI (HOP-62 NSCLC): > 100 µM
TGI (NCI-H522 lung): 91.4 µM
TGI (UO-31 renal): > 100 µM
TGI (SN12C renal): > 100 µM
TGI (M19-MEL melanoma): > 100 µM
TGI (KM12 colon): > 100 µM
TGI (UACC-62 melanoma): > 100 µM
TGI (A498 renal): > 100 µM
TGI (SR leukemia): > 100 µM
TGI (SK-OV-3 ovarian): > 100 µM
TGI (DMS 114 small cell lung): 89.7 µM
TGI (NCI-H23 lung): > 100 µM
TGI (SF-268 CNS): > 100 µM
TGI (TK-10 renal): > 100 µM
TGI (SK-MEL-2 melanoma): > 100 µM
TGI (KM20L2 colon): > 100 µM
TGI (DLD-1 colon): > 100 µM
TGI (HCC-2998 colon): > 100 µM
TGI (LOX IMVI melanoma): > 100 µM
TGI (OVCAR-5 ovarian): > 100 µM
TGI (OVCAR-3 ovarian): > 100 µM
TGI (MOLT-4 leukemia): > 100 µM
TGI (DMS 273 small cell lung): > 100 µM
TGI (OVCAR-4 ovarian): > 100 µM
TGI (HOP-92 NSCLC): > 100 µM
TGI (786-0 renal): > 100 µM
TGI (HCT-15 colon): > 100 µM
TGI (COLO 205 colon): > 100 µM
TGI (HL-60(TB) leukemia): 81.9 µM
TGI (NCI-H460 lung): > 100 µM
TGI (SW-620 colon): > 100 µM
TGI (SF-539 CNS): > 100 µM
TGI (HT29 colon): > 100 µM
TGI (HOP-18 NSCLC): > 100 µM
TGI (UACC-257 melanoma): > 100 µM
TGI (OVCAR-8 ovarian): > 100 µM
TGI (LXFL 529 NSCLC): > 100 µM
TGI (SNB-19 CNS): > 100 µM
